According to ChEMBL document CHEMBL3297694, “Naturally occurring polyphenolic inhibitors of amyloid beta aggregation” (Bioorg Med Chem Lett, 2014):
Calls of active or inactive are those of the source. No cut-off for these calls is given here.

Experiments:
[1] = biological target: T1, Amyloid-beta precursor protein (Homo sapiens, UniProt P05067); assay: Inhibition of amyloid beta1-42 (unknown origin) aggregation assessed as amyloid fibril formation tested at 1:1 compound to peptide ratio after 17 hrs by thioflavin T fluorescence method; set-up: scale not given: the % may be the effect or the level left
T1 sequence (P05067 whole entry): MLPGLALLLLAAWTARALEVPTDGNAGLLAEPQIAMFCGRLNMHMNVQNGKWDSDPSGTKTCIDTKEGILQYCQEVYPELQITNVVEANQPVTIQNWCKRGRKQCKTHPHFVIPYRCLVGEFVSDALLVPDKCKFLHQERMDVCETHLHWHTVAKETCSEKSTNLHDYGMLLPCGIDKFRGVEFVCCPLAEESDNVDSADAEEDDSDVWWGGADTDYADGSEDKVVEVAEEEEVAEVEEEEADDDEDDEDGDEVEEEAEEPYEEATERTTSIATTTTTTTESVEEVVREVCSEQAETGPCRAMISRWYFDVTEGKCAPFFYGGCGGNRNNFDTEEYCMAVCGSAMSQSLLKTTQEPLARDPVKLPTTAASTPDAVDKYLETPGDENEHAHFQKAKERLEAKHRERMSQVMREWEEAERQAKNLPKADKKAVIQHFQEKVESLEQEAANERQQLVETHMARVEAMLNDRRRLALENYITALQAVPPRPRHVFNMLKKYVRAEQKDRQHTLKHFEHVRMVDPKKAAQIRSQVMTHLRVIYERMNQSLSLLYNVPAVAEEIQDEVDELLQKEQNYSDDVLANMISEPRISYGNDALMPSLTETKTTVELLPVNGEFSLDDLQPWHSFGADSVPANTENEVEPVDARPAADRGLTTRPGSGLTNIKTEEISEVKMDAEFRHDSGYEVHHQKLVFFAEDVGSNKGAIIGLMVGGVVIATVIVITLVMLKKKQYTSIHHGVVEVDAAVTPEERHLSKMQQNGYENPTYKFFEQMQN

[2] = biological target: T1, Amyloid-beta precursor protein; assay: Inhibition of amyloid beta1-42 (unknown origin) aggregation assessed as reduction in amyloid fibril formation at 40 uM after 5 days by Transmission electron microscopy
[3] = biological target: T1, Amyloid-beta precursor protein; assay: Inhibition of amyloid beta1-42 (unknown origin) aggregation assessed as amyloid fibril formation tested after 17 hrs by thioflavin T fluorescence method
[4] = biological target: T1, Amyloid-beta precursor protein; assay: Inhibition of amyloid beta1-40 (unknown origin) aggregation
[5] = biological target: T1, Amyloid-beta precursor protein; assay: Inhibition of amyloid beta1-42 (unknown origin) aggregation assessed as reduction in large aggregates at 100 uM after 20 mins and 24 hrs by dynamic light scattering method
[6] = biological target: T1, Amyloid-beta precursor protein; assay: Inhibition of amyloid beta1-42 (unknown origin) aggregation assessed as reduction in large aggregates at 400 uM after 20 mins and 2 hrs by size exclusion chromatography test

| SMILES | Activity [1] | inhibition of amyloid fibril formation (active/inactive) [2] | IC50 [3] | IC50 [4] | inhibition [5] | Activity [6] |
| --- | --- | --- | --- | --- | --- | --- |
| O=c1cc(-c2ccc(O)c(O)c2)oc2cc(O)cc(O)c12 [LUTEOLIN] | 14.4% | Active | 6.4 µM | – | – | – |
| O=C(O[C@@H]1Cc2c(O)cc(O)cc2O[C@@H]1c1cc(O)c(O)c(O)c1)c1cc(O)c(O)c(O)c1 [EPIGALOCATECHIN GALLATE] | 16% | Active | 4.6 µM | 3 µM | – | – |
| O=C1/C(=C/c2ccc(O)c(O)c2)Oc2c1ccc(O)c2O | 18.5% | Active | 2.7 µM | – | – | – |
| COc1c(-c2ccc(O)c(O)c2)oc2c(O)c(O)ccc2c1=O | 21% | Active | 5.4 µM | – | Active | Active |
